Measured values: ChEMBL document CHEMBL3864144, “Cochlearoids F-K: Phenolic meroterpenoids from the fungus Ganoderma cochlear and their renoprotective activity” (Bioorg Med Chem Lett, 2016)
The source made the active and inactive calls. No cut-off for these calls is given here.

Columns and labels:
[1] = Cytotoxicity against human HKC8 cells assessed as decrease in cell viability at 2.5 uM after 24 hrs by MTT assay; type: toxicity, cell-based; details: hkc8, 24 h
[2] = Cytotoxicity against human HKC8 cells assessed as decrease in cell viability at 20 uM after 24 hrs by MTT assay; type: toxicity, cell-based; details: hkc8, 24 h
HKC8 = experiment: Renoprotective activity in human HKC8 cells assessed as inhibition of TGF-beta1-induced fibronectin production preincubated for 1 hr followed by TGF-beta1 induction measured after 24 hrs by solid-phase sandwich ELISA; type: functional, cell-based
[3] = Cytotoxicity against human HKC8 cells assessed as decrease in cell viability at 5 uM after 24 hrs by MTT assay; type: toxicity, cell-based; details: hkc8, 24 h
[4] = Cytotoxicity against human HKC8 cells assessed as decrease in cell viability at 10 uM after 24 hrs by MTT assay; type: toxicity, cell-based; details: hkc8, 24 h

Compound	Activity [1]	Activity [2]	inhibition (HKC8)	Activity [3]	Activity [4]
CC(C)=CCC/C(C)=C/CC/C(=C/Cc1cc2oc(=O)c3c(O)ccc(O)c3c2cc1O)CO	Non-Toxic	Toxic			
CC(C)=CCC/C(C)=C/CC/C(=C/Cc1cc(O)cc2c1oc(=O)c1c(O)ccc(O)c12)C(=O)O	Non-Toxic	Toxic	Active		
CC(C)=CCC/C(=C/Cc1cc2oc(=O)c3c(O)ccc(O)c3c2cc1O)C(=O)O		Toxic	Active	Non-Toxic	
CC(C)=CCC/C(C)=C/CC/C(=C/Cc1cc(O)cc2c(C(=O)c3cc(O)ccc3O)c(CC/C=C(\C)CCC=C(C)C)c(=O)oc12)CO		Toxic	Active	Non-Toxic	
CC(C)=CCC/C(C)=C/CC/C(=C/Cc1cc2oc(=O)c(CC/C=C(\C)CCC=C(C)C)c(C(=O)c3cc(O)ccc3O)c2cc1O)CO		Toxic	Active	Non-Toxic	
CC(C)=CCC/C(C)=C/CC/C(=C/Cc1cc(O)cc2c1oc(=O)c1c(O)ccc(O)c12)CO		Toxic	Active		Non-Toxic
